The source of these data is US20260078130A1, “NAMPT MODULATORS, PREPARATIONS, AND USES THEREOF” (SIRONAX LTD., priority 2022, published 2026).

For assay [1], the target named is T1, human enzyme NAMPT (full length) (Homo sapiens, UniProt P43490).
T1 construct: human enzyme NAMPT (full length)
Kind of assay: NMN fluorescence biochemical assay (stimulation of NMN synthesis by NAMPT). The note with it: for EC50: concentration giving half-maximal activation, read-out: Enzymatic EC50; for Enzymatic Emax: fold change of maximal activation compared to DMSO. An outline of the steps:
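Full-length human NAMPT (100 nM) was preincubated 15 min at 37 °C with compound in 50 mM Tris-HCl pH 7.5, 10 mM MgCl2, 2 mM DTT, then reacted 1 h at 37 °C with 50 μM NAM, 100 μM PRPP, 4 mM ATP (stated solution concentrations). NMN was derivatised with acetophenone/KOH then formic acid and read at Ex/Em 382/445 nm; EC50 and Emax (fold over DMSO) reported.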

The subject of assay [2] is endogenous NAMPT in U2OS cells. Briefly: Cellular NAD+ modulation assay (NAD/NADH-Glo, U2OS cells). Format: cell-based. The note with it: Homo sapiens; for maximal fold induction: read-out: Cellular Emax. An outline of the steps: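 NAD/NADH-Glo luminescence quantified NAD+ after acid treatment (60 °C, 15 min) and neutralization of DTAB lysates. Beforehand, U2OS cells seeded 16 h earlier received compound concentration series for 24 h at 37 °C. Values given as half-maximal activation concentration (EC50) and maximal fold change versus DMSO (Emax).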

Setting [3] is: NMN synthesis by purified human NAMPT (100 nM).
Where [4] appears, read: 24 hours incubation with compound.
Setting [5] is: NMN fluorescence assay, purified human NAMPT 100 nM.
[6] abbreviates: 24 hours incubation, cellular NAD+.

Read-outs that look alike come from different tables or passages of the source. Bounds are passed on as bounds.

T1 sequence (P43490 whole entry): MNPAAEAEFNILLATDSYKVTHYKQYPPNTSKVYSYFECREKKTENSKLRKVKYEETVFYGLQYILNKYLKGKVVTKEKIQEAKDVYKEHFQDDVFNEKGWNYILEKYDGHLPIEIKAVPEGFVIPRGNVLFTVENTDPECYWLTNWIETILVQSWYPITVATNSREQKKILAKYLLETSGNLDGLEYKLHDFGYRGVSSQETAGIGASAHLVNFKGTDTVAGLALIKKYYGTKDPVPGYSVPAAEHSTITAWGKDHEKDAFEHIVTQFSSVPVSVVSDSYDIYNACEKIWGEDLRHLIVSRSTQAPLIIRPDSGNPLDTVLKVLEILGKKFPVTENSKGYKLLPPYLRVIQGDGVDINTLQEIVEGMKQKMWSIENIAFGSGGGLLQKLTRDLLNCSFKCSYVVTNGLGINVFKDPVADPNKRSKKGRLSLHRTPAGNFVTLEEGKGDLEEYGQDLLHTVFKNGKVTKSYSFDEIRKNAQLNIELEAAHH

For the compound `N#Cc1ccc(F)c(CC2c3ccccc3C(=O)N2Cc2ccc3[nH]c(=O)oc3c2)c1` (stereo not drawn) [Compound 202, 4-fluoro-3-((3-oxo-2-((2-oxo-2,3-dihydrobenzo[d]oxazol-6-yl)methyl)isoindolin-1-yl)methyl)benzonitrile], the EC50 (as a rule, the midpoint of the concentration-response curve) in assay [1] (setting [3]) lay within 500 to 5000 nM. Further, the “Enzymatic Emax” value in assay [1] is recorded as “A (A>3)”. Further, in assay [2] (setting [4]), the EC50 is under 500 nM and the maximal fold induction is over 1.5.
Regarding `N#CCc1ccccc1CC1c2ccccc2C(=O)N1Cc1ccc2[nH]c(=O)oc2c1` (stereo not drawn) [Compound 173, 2-(2-((3-oxo-2-((2-oxo-2,3-dihydrobenzo[d]oxazol-6-yl)methyl)isoindolin-1-yl)methyl)phenyl)acetonitrile], the EC50 in assay [1] (setting [3]) was 500 to 5000 nM. In addition, the “Enzymatic Emax” value in assay [1] was “B (3≥B>2)”. In addition, in assay [2] (setting [4]), the EC50 is 500 to 5000 nM and the maximal fold induction was over 1.5.
Regarding `CC1c2cc(CN3CCOCC3)ccc2C(=O)N1Cc1ccc2[nH]c(=O)oc2c1` (stereo not drawn) [Compound 143, 6-((3-methyl-5-(morpholinomethyl)-1-oxoisoindolin-2-yl)methyl)benzo[d]oxazol-2(3H)-one], the EC50 in assay [1] (setting [3]) was at least 5000 nM. Moreover, in assay [1], the “Enzymatic Emax” value was “A (A>3)”. Besides, in assay [2] (setting [4]), the EC50 lay within 500 to 5000 nM and the maximal fold induction is over 1.5.
With `O=C1c2ccccc2C(Cc2ncccc2Br)N1CCc1cn[nH]c1` (stereo not drawn) [Compound 475, 2-(2-(1H-pyrazol-4-yl)ethyl)-3-((3-bromopyridin-2-yl)methyl)isoindolin-1-one], the EC50 in assay [1] (setting [5]) and in assay [2] (setting [6]) was 500 to 5000 nM throughout. Further, the “Enzymatic Emax” value in assay [1] was “C (2≥C)”. Also, in assay [2] (setting [6]), the maximal fold induction lay in the range of 1.2 to 1.5.
For `Cn1ncc(Cl)c1CC1c2ccccc2C(C)(C)N1C/C=C/c1c[nH]nn1` (stereo not drawn) [Compound 606, (E)-2-(3-(1H-1,2,3-triazol-4-yl)allyl)-3-((4-chloro-1-methyl-1H-pyrazol-5-yl)methyl)-1,1-dimethylisoindoline], the EC50 in assay [1] (setting [5]) is 500 to 5000 nM. The “Enzymatic Emax” value in assay [1] is reported as “A (A>3)”. In assay [2] (setting [6]), the EC50 is under 500 nM and the maximal fold induction is over 1.5.
Turning to `O=C1c2ccccc2C(Cc2nccs2)N1Cc1ccc2[nH]c(=O)oc2c1` (stereo not drawn) [Compound 140, 6-((1-oxo-3-(thiazol-2-ylmethyl)isoindolin-2-yl)methyl) benzo[d]oxazol-2(3H)-one], the EC50 in assay [1] (setting [3]) is at least 5000 nM. For the same compound, the “Enzymatic Emax” value in assay [1] is “A (A>3)”. Also, in assay [2] (setting [4]), the EC50 was in the range of 500 to 5000 nM and the maximal fold induction was over 1.5.
Take `Cn1ncc(Cl)c1CC1c2cc(C3COC3)ccc2C(=O)N1Cc1ccc2[nH]nnc2c1` (stereo not drawn) [Compound 370, 2-((1H-benzo[d][1,2,3]triazol-5-yl)methyl)-3-((4-chloro-1-methyl-1H-pyrazol-5-yl)methyl)-5-(oxetan-3-yl)isoindolin-1-one]: the EC50 in assay [1] (setting [5]) and in assay [2] (setting [6]) was under 500 nM each time. Also, the “Enzymatic Emax” value in assay [1] is reported as “B (3≥B>2)”. Also, in assay [2] (setting [6]), the maximal fold induction was over 1.5.
Regarding `COc1cnc(CN2C(=O)c3ccccc3C2Cc2c(Cl)cnn2C)cc1F` (stereo not drawn) [Compound 555, 3-((4-chloro-1-methyl-1H-pyrazol-5-yl)methyl)-2-((4-fluoro-5-methoxypyridin-2-yl)methyl)isoindolin-1-one], the concentration for a half-maximal effect (EC50) in assay [1] (setting [5]) is at least 5000 nM. Besides, in assay [1], the “Enzymatic Emax” value is recorded as “B (3≥B>2)”. Besides, in assay [2] (setting [6]), the EC50 is under 500 nM and the maximal fold induction is over 1.5.
Take `Cn1ncc(Cl)c1CC1c2cc(Cl)ccc2C(=O)N1CC1CC2(CNC(=O)O2)C1` (stereo not drawn) [Compound 474, 2-((5-chloro-3-((4-chloro-1-methyl-1H-pyrazol-5-yl)methyl)-1-oxoisoindolin-2-yl)methyl)-5-oxa-7-azaspiro[3.4]octan-6-one]: the EC50 in assay [1] (setting [5]) was 500 to 5000 nM; in assay [2] (setting [6]) it was under 500 nM. Also, in assay [1], the “Enzymatic Emax” value is “B (3≥B>2)”. Besides, the maximal fold induction in assay [2] (setting [6]) was over 1.5.
As for `O=c1c2ccccc2ccn1Cc1ccc(O)cc1` [Compound 1, 2-(4-hydroxybenzyl)isoquinolin-1(2H)-one], the EC50 in assay [1] (setting [3]) is at least 5000 nM; in assay [2] (setting [4]) it was 500 to 5000 nM. Further, the “Enzymatic Emax” value in assay [1] is “A (A>3)”. For the same compound, in assay [2] (setting [4]), the maximal fold induction is over 1.5.
As for `Cn1ncc(Cl)c1CC1c2ccccc2C(=O)N1C[C@@H]1C[C@@H]1c1c[nH]nn1` (relative stereo) [Compound 604, cis 2-((2-(1H-1,2,3-triazol-4-yl)cyclopropyl)methyl)-3-((4-chloro-1-methyl-1H-pyrazol-5-yl)methyl)isoindolin-1-one], in assay [1] (setting [5]), the EC50 was at least 5000 nM. For the same compound, the “Enzymatic Emax” value in assay [1] is reported as “C (2≥C)”. Besides, in assay [2] (setting [6]), the EC50 fell in the range of 5000 to 50000 nM and the maximal fold induction was at most 1.2.
For the compound `CC(=O)Nc1ccc(CN2C(=O)c3ccccc3C2C)cc1` (stereo not drawn) [Compound 82, N-(4-((1-methyl-3-oxoisoindolin-2-yl)methyl)phenyl)acetamide], the EC50 in assay [1] (setting [3]) is at least 5000 nM; in assay [2] (setting [4]), 500 to 5000 nM. In addition, the “Enzymatic Emax” value in assay [1] is reported as “B (3≥B>2)”. Also, in assay [2] (setting [4]), the maximal fold induction lay within 1.2 to 1.5.
For the compound `Cc1ccnc(C#N)c1CC1c2ccc(F)cc2C(=O)N1CC1CC2(CNC(=O)O2)C1` (stereo not drawn) [Compound 449, 3-((5-fluoro-3-oxo-2-((6-oxo-5-oxa-7-azaspiro[3.4]octan-2-yl)methyl)isoindolin-1-yl)methyl)-4-methylpicolinonitrile], the 50% effective concentration (EC50) in assay [1] (setting [5]) was 500 to 5000 nM. For the same compound, in assay [1], the “Enzymatic Emax” value was “B (3≥B>2)”. In assay [2] (setting [6]), the EC50 was under 500 nM and the maximal fold induction was over 1.5.
On to `Cn1ncc(Cl)c1CC1c2scnc2C(=O)N1Cc1ccc(O)cc1` (stereo not drawn) [Compound 430, 6-((4-chloro-1-methyl-1H-pyrazol-5-yl)methyl)-5-(4-hydroxybenzyl)-5,6-dihydro-4H-pyrrolo[3,4-d]thiazol-4-one], for which the EC50 in assay [1] (setting [5]) was under 500 nM. Besides, the “Enzymatic Emax” value in assay [1] is on record as “B (3≥B>2)”. For the same compound, in assay [2] (setting [6]), the EC50 was under 500 nM and the maximal fold induction was over 1.5.
Turning to `O=C1c2ccc(Br)cc2CN1Cc1ccc(O)cc1` [Compound 20, 5-bromo-2-(4-hydroxybenzyl) isoindolin-1-one], in assay [1] (setting [3]), the EC50 lay in the range of 500 to 5000 nM. The “Enzymatic Emax” value in assay [1] was “A (A>3)”. In assay [2] (setting [4]), the EC50 was in the range of 500 to 5000 nM and the maximal fold induction is over 1.5.
As for `COc1ccc(CN2C(=O)c3ccccc3C2Cc2c(C)ncnc2C#N)cc1` (stereo not drawn) [Compound 597, 5-((2-(4-methoxybenzyl)-3-oxoisoindolin-1-yl)methyl)-6-methylpyrimidine-4-carbonitrile], the EC50 in assay [1] (setting [5]) lay in the range of 500 to 5000 nM. Further, the “Enzymatic Emax” value in assay [1] is reported as “B (3≥B>2)”. Moreover, in assay [2] (setting [6]), the EC50 was under 500 nM and the maximal fold induction was over 1.5.
Consider `C/C(=C\c1c[nH]nn1)CN1C(=O)c2ccccc2C1Cc1ncccc1Br` (stereo not drawn) [Compound 416, (E)-3-((3-bromopyridin-2-yl)methyl)-2-(2-methyl-3-(1H-1,2,3-triazol-4-yl)allyl)isoindolin-1-one], for which the EC50 in assay [1] (setting [5]) and in assay [2] (setting [6]) was under 500 nM throughout. In addition, in assay [1], the “Enzymatic Emax” value is “B (3≥B>2)”. Further, in assay [2] (setting [6]), the maximal fold induction is over 1.5.
As to `CCc1ccc2c(c1)C(=O)N(Cc1ccc(O)cc1)C2=O` [Compound 41, 5-ethyl-2-(4-hydroxybenzyl)isoindoline-1,3-dione], the EC50 in assay [1] (setting [3]) and in assay [2] (setting [4]) was 500 to 5000 nM in each case. In addition, the “Enzymatic Emax” value in assay [1] is listed as “A (A>3)”. The maximal fold induction in assay [2] (setting [4]) is 1.2 to 1.5.
